Values after ≈ are worked out from the molar mass of the structure shown.
What was measured:
Type in all cases: physicochemical
[1] = Phase solubility study of FFC in Captisol (Higuchi Connors)
Method: (§1) Phase solubility analysis is one of the methods used to determine a drug:CD binding constant and its consequences on the drug solubility have been extensively described in the literature by Higuchi and Connors. In such experiments, the solubility of a substance (S) is monitored with increases in the concentration of a ligand (L) (cyclodextrin in this case). The experiments are conducted in a series of tubes or vials containing the same volume of ligand solutions with increasing concentrations, except that one tube contains the solvent only. To each tube is added a known amount of the substance or drug, and the samples are equilibrated at constant temperature. The solution phase is then analyzed for the total substance concentration. If a soluble complex forms, the substance concentration should vary with increasing ligand concentration. The solubility behavior can be determined using a phase diagram by plotting the total substance concentration versus the total ligand concentration.
(§2) Florfenicol solubility in mixed solvents, such as water/PEG-300, and florfenicol complexes with beta cyclodextrin were evaluated by solubility studies using High Performance Liquid Chromatography (HPLC). The HPLC system consisted of a Waters Alliance Separation Module equipped with a Waters 2996 Photodiode Array Detector interfaced with Millennium Chromatography manager data software. The HPLC mobile phase consisted of acetonitrile and a 0.1% phosphoric acid aqueous solution (30:70 v/v). A Phenomenx®, Luna C8 5 micron column was used. The flow rate was 1.0 mL/min and the detection wavelength was 260 nm. Binding constants were calculated using the Higuchi Connors method from solubility study plots. The solubility of florfenicol in aqueous CD/PEG-300 systems was also investigated with the same technique.
(§3) In a first set of experiments, phase solubility studies were conducted for FFC in natural and modified cyclodextrins. The results of these studies are reported in Tables I, II, III, IV and V below, and the phase solubility diagrams are reported in FIGS. 5, 6, 7 and 8.

[2] = Experimental water solubility of FFC (HPLC solubility study); conditions: thermodynamic from solid
Method: as §1, §2, §3

[3] = Phase solubility study of FFC in Gamma-CD (Higuchi Connors)
Method: as §1, §2, §3

[4] = Phase solubility study of FFC in HP-Beta-CD (Higuchi Connors)
Method: as §1, §2, §3

[5] = Solubility of FFC in aqueous Beta-CD/PEG-300 systems; conditions: for solubility: aqueous beta-cyclodextrin/PEG-300 system, aqueous with cosolvent or surfactant or cyclodextrin, thermodynamic from solid
Method: as §2
In a second set of experiments, the effects of different percentages of PEG-300 when used as a co-solvent were investigated in a FFC-cyclodextrin complex system.
The results obtained for the FEC-CD complex in the presence of different percentages of PEG-300 and different molar concentrations of cyclodextrin are reported in Tables VI and VII below.

[6] = Phase solubility study of FFC in Beta-CD (Higuchi Connors)
Method: as §1, §2, §3

CS(=O)(=O)c1ccc([C@@H](O)[C@@H](CF)NC(=O)C(Cl)Cl)cc1 (relative stereo) [FFC, [R-(R*,S*)]2,2-Dichloro-N-[1-(fluoromethyl)-2-hydroxy-2-[4-(methylsulfonyl)phenyl]-ethyl]acetamide]
Average FFC ([1]; Captisol 0.006 M): 4.92 mg/mL
FFC ([1]; Captisol 0.006 M): 9.28 µM
Average FFC ([1]; Captisol 0.013 M): 5.11 mg/mL
FFC ([1]; Captisol 0.013 M): 13.2 µM
Average FFC ([1]; Captisol 0.03 M): 7.98 mg/mL
Average FFC ([1]; Captisol 0.05 M): 13.17 mg/mL
FFC ([1]; Captisol 0.05 M): 34.1 µM
Average FFC ([1]; Captisol 0.10 M): 19.18 mg/mL
FFC ([1]; Captisol 0.10 M): 49.7 µM
calculated binding constant for FFC:Captisol complex ([1]; Captisol, Higuchi Connors method): 1020.92 M⁻¹
solubility ([2]; Standard 1): 1910 µg/mL (≈ 5.33 mM)
solubility ([2]; Standard 2): 1900 µg/mL (≈ 5.3 mM)
solubility ([2]; Standard 3): 1950 µg/mL (≈ 5.44 mM)
Average FFC ([3]; Gamma-CD 0.007 M): 2.51 mg/mL
Average FFC ([3]; Gamma-CD 0.014 M): 3.70 mg/mL
Average FFC ([3]; Gamma-CD 0.03 M): 5.24 mg/mL
Average FFC ([3]; Gamma-CD 0.06 M): 8.20 mg/mL
Average FFC ([3]; Gamma-CD 0.11 M): 10.77 mg/mL
calculated binding constant for FFC:Gamma-CD Complex ([3]; Gamma-CD, Higuchi Connors method): 612.43 M⁻¹
Average FFC ([4]; HP-Beta-CD 0.006 M): 3.72 mg/mL
Average FFC ([4]; HP-Beta-CD 0.012 M): 4.88 mg/mL
Average FFC ([4]; HP-Beta-CD 0.02 M): 7.00 mg/mL
Average FFC ([4]; HP-Beta-CD 0.05 M): 9.76 mg/mL
Average FFC ([4]; HP-Beta-CD 0.09 M): 17.43 mg/mL
calculated binding constant for FFC:HP-CD complex ([4]; HP-Beta-CD, Higuchi Connors method): 816.652 M⁻¹
solubility of FFC (change) ([5]; PEG-300 used as co-solvent for a FFC:cyclodextrin complex): greatly increased
solubility ([5]; 10 mM beta/3% PEG-300): 7510 µg/mL (≈ 21 mM)
solubility ([5]; 10 mM beta/10% PEG-300): 6310 µg/mL (≈ 17.6 mM)
solubility ([5]; 10 mM beta/50% PEG-300): 12300 µg/mL (≈ 34.3 mM)
solubility ([5]; 50 mM beta/20% PEG-300): 10600 µg/mL (≈ 29.5 mM)
solubility ([5]; 50 mM beta/30% PEG-300): 14400 µg/mL (≈ 40.1 mM)
solubility ([5]; 50 mM beta/50% PEG-300): 15500 µg/mL (≈ 43.3 mM)
Average FFC ([6]; Beta-CD 0.006 M): 4.03 mg/mL
FFC ([6]; Beta-CD 0.006 M): 10.45 µM
Average FFC ([6]; Beta-CD 0.01 M): 5.91 mg/mL
FFC ([6]; Beta-CD 0.01 M): 15.3 µM
Average FFC ([6]; Beta-CD 0.02 M): 9.79 mg/mL
FFC ([6]; Beta-CD 0.02 M): 25.4 µM
Average FFC ([6]; Beta-CD 0.05 M): 15.59 mg/mL
FFC ([6]; Beta-CD 0.05 M): 40.4 µM
calculated binding constant for FFC:CD complex ([6]; Beta-CD, Higuchi Connors method): 1429.57 M⁻¹

From patent publication US20090062397A1, “COMPOUNDS AND METHODS FOR ENHANCING SOLUBILITY OF FLORFENICOL AND STRUCTURALLY-RELATED ANTIBIOTICS USING CYCLODEXTRINS” (Schering-Plough Animal Health Corporation, priority 2007, published 2009)
